Assay results from US20110070320A1, “BIODEGRADABLE THERMORESPONSIVE 3-ARM POLYETHYLENE GLYCOL POLY(LACTIDE-CO-GLYCOLIDE) COPOLYMER FOR GINSENG ADMINISTRATION” (priority 2009, published 2011).

Tests used:
Format in all cases: physicochemical
[1] = Doxorubicin release from copolymer aqueous gel; conditions: 37° C.; 20% (w/w) copolymer gel; FIG. 3
Experimental: Doxorubicin was used as a hydrophilic drug in a drug release study using the copolymer of EXAMPLE 1 in a 20% (w/w) aqueous solution. The drug (4 mg) was dissolved in 2 ml of the polymer solution. The drug/polymer solution was filtered through a 0.2 μm syringe and an aliquot of 0.5 ml of the solution was added to each sample vial. The triplet samples were placed in a water bath preheated and stabilized at 37° C. After 10 min a buffer solution of 1×PBS (1 ml, preheated at 37° C.) was added to each sample vial containing a gelled drug/polymer solution. The drug contents in the release media, which were removed and replaced with fresh PBS solutions at each sampling point, were determined at 1, 3, 6 h and then daily for 8 days by a spectrophotometer (SpecraMax M2 by Molecular Devices).

[2] = Paclitaxel release from copolymer aqueous gel; conditions: 37° C.; 20% (w/w) copolymer gel; FIG. 2
Experimental: Paclitaxel was used as a hydrophobic drug in a drug release study using the copolymer of EXAMPLE 1 in a 20% (w/w) aqueous solution. The drug (4 mg) was added to a 4 ml vial containing 0.2 ml of the polymer solution. At 4° C. the sample vial was sonicated for 15 min and vortexed for 16 h and sonicated for 15 min again to give a slightly cloudy suspension. After filtered through a 0.2 μm syringe filter an aliquot (0.2 ml) of the solution was added to each sample vial. The triplet samples were placed in a water bath preheated and stabilized at 37° C. After 10 min a buffer solution of 1×PBS (3 ml, preheated at 37° C.) containing 2.4% (w/w) of Tween 80 and 4% (w/w) of Cremophor EL was added to each sample vial containing a gelled drug/polymer solution. The drug release was determined by taking an aliquot of the medium from each sample vial at 1.5 h, 6 h and then daily for 10 days and analyzing the drug content of the sample by HPLC (mobile phase 1 ml/min 50/50 acetonitrile/deioned water, wavelength 227 nm, running time 15 min).

[3] = Enhanced drug solubility in polymer gel (HPLC); conditions: aqueous solution of Example 1 polymer (20% w/w); filtered 0.2 μm
Experimental: In a 4 ml vial the polymer from EXAMPLE 1 (200 mg) and paclitaxel (2 mg) were dissolved in acetone (1·ml). The mixture was evaporated under vacuum for 16 h. Deionized water (0.8 ml) was added and the mixture was stirred at 4° C. for 24 h. The resulting solution was filtered through a 0.2 μm syringe filter to give a clear solution. An aliquot of the solution was diluted 100-fold with acetonitrile and analyzed for paclitaxel by HPLC (mobile phase: water/acetonitrile 1:1, 1 ml/min, injection volume: 20 μl, running time: 15 min, column: Waters Symmetry 300™ 4.6×250 mm, C18 5 μm, detector: Waters 2996).

| Compound | duration of controlled drug release from copolymer aqueous gel [1] [days] | duration of controlled drug release from copolymer aqueous gel [2] [days] | paclitaxel content in the aqueous solution [3] [mg/mL] |
| --- | --- | --- | --- |
| COc1cccc2c1C(=O)c1c(O)c3c(c(O)c1C2=O)C[C@@](O)(C(=O)CO)C[C@@H]3O[C@H]1C[C@H](N)[C@H](O)[C@H](C)O1 [doxorubicin, Doxorubicin] | 8 |  |  |
| CC(=O)O[C@H]1C(=O)[C@@]2(C)[C@H]([C@H](OC(=O)c3ccccc3)[C@]3(O)C[C@H](OC(=O)[C@H](O)[C@@H](NC(=O)c4ccccc4)c4ccccc4)C(C)=C1C3(C)C)[C@]1(OC(C)=O)CO[C@@H]1C[C@@H]2O [paclitaxel, Paclitaxel] |  | 10 | 6.4 |
